Patent US7469185B2, “Primary rat hepatocyte toxicity modeling” (Ocimum Biosolutions, Inc., priority 2002, dated 2008)

Columns and labels:
dogs = settings: dog, in vivo; cited from earlier work
primary rat hepatocytes = assay: Microarray gene expression analysis (Affymetrix rat array) of toxin-exposed hepatocytes, with linear discriminant score; format: cell-based; settings: 24 hrs
Experimental: Identification of toxicity markers was performed by microarray analysis and by the AlamarBlue® assay, a classical measure of cytotoxicity. The AlamarBlue® assay was performed in triplicate.
The source of the primary rat hepatocytes was Sprague Dawley Outbred CDs Rats (CRL:CD®[SD] IGS BR, Charles River Laboratories). […] Primary rat hepatocytes were received the day after the cells were removed from the animals. After arrival, the cells, the cells were incubated overnight (˜15 hrs) before the toxin was added to the cultures. […] Toxin or vehicle was administered to hepatocyte cultures as follows. For each treatment, i.e., vehicle alone, vehicle+toxin at low dose, or vehicle+toxin at high dose, cells were harvested after 3, 6 and 24-hour incubations with the toxin solution or with the vehicle.
More than 10^7 cells are typically prepared for each sample. RNA was collected at 3, 6 and 24 hours following addition of the toxin according to the following procedure.
Each flask contained ˜10-20 million cells. The contents of each flask were mixed vigorously for one minute with a vortex mixer and then aspirated up and down 5 times with a pipette. The contents of each flask (˜12 ml each) was collected into a 50 ml conical polypropylene tissue culture tube (Falcon), snap frozen in liquid nitrogen and stored at ≦−86° C.
Microarray sample preparation was conducted with minor modifications, following the protocols set forth in the Affymetrix GeneChip® Expression Analysis Manual. Frozen cells were ground to a powder using a Spex Certiprep 6800 Freezer Mill. Total RNA was extracted with Trizol (GibcoBRL) utilizing the manufacturer's protocol. […] Double stranded cDNA was generated from mRNA using the SuperScript Choice system (GibcoBRL). First strand cDNA synthesis was primed with a T7-(dT24) oligonucleotide. The cDNA was phenol-chloroform extracted and ethanol precipitated to a final concentration of […]. From 2 μg of cDNA, cRNA was synthesized using Ambion's T7 MegaScript in vitro Transcription Kit.
To biotin label the cRNA, nucleotides Bio-11-CTP and Bio-16-UTP (Enzo Diagnostics) were added to the reaction. Following a 37° C. incubation for six hours, impurities were removed from the labeled cRNA following the RNeasy Mini kit protocol (Qiagen). cRNA was fragmented (fragmentation buffer consisting of 200 mM Tris-acetate, pH 8.1, 500 mM KOAc, 150 mM MgOAc) for thirty-five minutes at 94° C. Following the Affymetrix protocol, 55 μg of fragmented cRNA was hybridized on the Affymetrix rat array set for twenty-four hours at 60 rpm in a 45° C. hybridization oven. The chips were washed and stained with Streptavidin Phycoerythrin (SAPE) (Molecular Probes) in Affymetrix fluidics stations. To amplify staining, SAPE solution was added twice with an anti-streptavidin biotinylated antibody (Vector Laboratories) staining step in between. Hybridization to the probe arrays was detected by fluorometric scanning (Hewlett Packard Gene Array Scanner). Data was analyzed using Affymetrix GeneChip® version 3.0 and Expression Data Mining Tool (EDMT) software (version 1.0), S-Plus, and the GeneExpress® software system.
Each gene is identified by its Gene Logic identification number and can be cross-referenced to a gene name and representative SEQ ID NO. in Table 1.

## Cl.Nc1nc2c(Cc3ccsc3)c[nH]c2c(=O)[nH]1.O [CI-1000, 4H-pyrrolo:3,2-d:pyrimidin-4-one, 2-amino-3,5-dihydro-7-(3-thienylmethyl)-monohydrochloride monohydrate]
dogs
  serum ALT levels: increased
Primary rat hepatocytes; GLGC ID NO. 108
  Mean Tox: 773.3800
Primary rat hepatocytes; GLGC ID NO. 573
  Mean Tox: 8.6367
Primary rat hepatocytes; GLGC ID NO. 574
  Mean Tox: 4432.0900
Primary rat hepatocytes; GLGC ID NO. 798
  Mean Tox: 128.0433
Primary rat hepatocytes; GLGC ID NO. 1348
  Mean Tox: 71.9967
Primary rat hepatocytes; GLGC ID NO. 1378
  Mean Tox: 98.1567
Primary rat hepatocytes; GLGC ID NO. 1570
  Mean Tox: 1078.9433
Primary rat hepatocytes; GLGC ID NO. 1571
  Mean Tox: 1228.2500
Primary rat hepatocytes; GLGC ID NO. 1728
  Mean Tox: 390.6900
Primary rat hepatocytes; GLGC ID NO. 1798
  Mean Tox: 347.1167
Primary rat hepatocytes; GLGC ID NO. 2250
  Mean Tox: 3776.5600
Primary rat hepatocytes; GLGC ID NO. 2267
  Mean Tox: 415.0967
Primary rat hepatocytes; GLGC ID NO. 2382
  Mean Tox: 33.0133
Primary rat hepatocytes; GLGC ID NO. 2909
  Mean Tox: 422.4233
Primary rat hepatocytes; GLGC ID NO. 2911
  Mean Tox: 39.1667
Primary rat hepatocytes; GLGC ID NO. 2933
  Mean Tox: 16.1500
Primary rat hepatocytes; GLGC ID NO. 3246
  Mean Tox: 236.8700
Primary rat hepatocytes; GLGC ID NO. 3501
  Mean Tox: 61.2333
Primary rat hepatocytes; GLGC ID NO. 3631
  Mean Tox: 235.6533
Primary rat hepatocytes; GLGC ID NO. 4636
  Mean Tox: 424.3433
Primary rat hepatocytes; GLGC ID NO. 4650
  Mean Tox: 398.0633
Primary rat hepatocytes; GLGC ID NO. 5044
  Mean Tox: 161.4467
Primary rat hepatocytes; GLGC ID NO. 5258
  Mean Tox: 68.1000
Primary rat hepatocytes; GLGC ID NO. 5496
  Mean Tox: 49.0667
Primary rat hepatocytes; GLGC ID NO. 5615
  Mean Tox: 127.1533
Primary rat hepatocytes; GLGC ID NO. 5899
  Mean Tox: 33.5000
Primary rat hepatocytes; GLGC ID NO. 6033
  Mean Tox: 72.8967
Primary rat hepatocytes; GLGC ID NO. 6224
  Mean Tox: 150.6700
Primary rat hepatocytes; GLGC ID NO. 6291
  Mean Tox: 87.3167
Primary rat hepatocytes; GLGC ID NO. 6343
  Mean Tox: 51.9167
Primary rat hepatocytes; GLGC ID NO. 6717
  Mean Tox: 59.7300
Primary rat hepatocytes; GLGC ID NO. 6996
  Mean Tox: 165.6633
Primary rat hepatocytes; GLGC ID NO. 7926
  Mean Tox: 49.1133
Primary rat hepatocytes; GLGC ID NO. 8395
  Mean Tox: 10.1200
Primary rat hepatocytes; GLGC ID NO. 9309
  Mean Tox: 142.4767
Primary rat hepatocytes; GLGC ID NO. 9500
  Mean Tox: 66.0900
Primary rat hepatocytes; GLGC ID NO. 9845
  Mean Tox: 126.4867
Primary rat hepatocytes; GLGC ID NO. 10138
  Mean Tox: 43.7667
Primary rat hepatocytes; GLGC ID NO. 10544
  Mean Tox: 702.1267
Primary rat hepatocytes; GLGC ID NO. 10920
  Mean Tox: −1.0367
Primary rat hepatocytes; GLGC ID NO. 10986
  Mean Tox: 12.0067
Primary rat hepatocytes; GLGC ID NO. 11610
  Mean Tox: 570.7167
Primary rat hepatocytes; GLGC ID NO. 12563
  Mean Tox: 634.3933
Primary rat hepatocytes; GLGC ID NO. 12580
  Mean Tox: 37.5533
Primary rat hepatocytes; GLGC ID NO. 13169
  Mean Tox: 173.3367
Primary rat hepatocytes; GLGC ID NO. 13283
  Mean Tox: 44.9933
Primary rat hepatocytes; GLGC ID NO. 13346
  Mean Tox: 474.6867
Primary rat hepatocytes; GLGC ID NO. 13563
  Mean Tox: 194.5233
Primary rat hepatocytes; GLGC ID NO. 13614
  Mean Tox: 51.4367
Primary rat hepatocytes; GLGC ID NO. 13919
  Mean Tox: 64.7367
Primary rat hepatocytes; GLGC ID NO. 14521
  Mean Tox: 198.1933
Primary rat hepatocytes; GLGC ID NO. 14934
  Mean Tox: 171.4667
Primary rat hepatocytes; GLGC ID NO. 15087
  Mean Tox: 279.6733
Primary rat hepatocytes; GLGC ID NO. 15205
  Mean Tox: 136.0033
Primary rat hepatocytes; GLGC ID NO. 15403
  Mean Tox: 546.1933
Primary rat hepatocytes; GLGC ID NO. 15663
  Mean Tox: 575.4367
Primary rat hepatocytes; GLGC ID NO. 15685
  Mean Tox: 1989.9867
Primary rat hepatocytes; GLGC ID NO. 15925
  Mean Tox: 154.8867
Primary rat hepatocytes; GLGC ID NO. 16006
  Mean Tox: 341.7733
Primary rat hepatocytes; GLGC ID NO. 16024
  Mean Tox: 520.0167
Primary rat hepatocytes; GLGC ID NO. 16025
  Mean Tox: 313.1433
Primary rat hepatocytes; GLGC ID NO. 16164
  Mean Tox: 1717.2267
Primary rat hepatocytes; GLGC ID NO. 16947
  Mean Tox: 147.5900
Primary rat hepatocytes; GLGC ID NO. 17115
  Mean Tox: −3.3700
Primary rat hepatocytes; GLGC ID NO. 17365
  Mean Tox: 113.6667
Primary rat hepatocytes; GLGC ID NO. 17549
  Mean Tox: 1296.6000
Primary rat hepatocytes; GLGC ID NO. 17956
  Mean Tox: 167.2833
Primary rat hepatocytes; GLGC ID NO. 18278
  Mean Tox: 30.2633
Primary rat hepatocytes; GLGC ID NO. 18383
  Mean Tox: 210.0600
Primary rat hepatocytes; GLGC ID NO. 18498
  Mean Tox: 412.3833
Primary rat hepatocytes; GLGC ID NO. 18524
  Mean Tox: 233.6633
Primary rat hepatocytes; GLGC ID NO. 18727
  Mean Tox: 1450.8800
Primary rat hepatocytes; GLGC ID NO. 18777
  Mean Tox: 195.2400
Primary rat hepatocytes; GLGC ID NO. 19371
  Mean Tox: 24.8700
Primary rat hepatocytes; GLGC ID NO. 20586
  Mean Tox: 44.1067
Primary rat hepatocytes; GLGC ID NO. 20664
  Mean Tox: 373.3533
Primary rat hepatocytes; GLGC ID NO. 20701
  Mean Tox: 78.4500
Primary rat hepatocytes; GLGC ID NO. 20755
  Mean Tox: 2569.4500
Primary rat hepatocytes; GLGC ID NO. 20801
  Mean Tox: 441.4867
Primary rat hepatocytes; GLGC ID NO. 20939
  Mean Tox: 971.5300
Primary rat hepatocytes; GLGC ID NO. 21064
  Mean Tox: 291.1633
Primary rat hepatocytes; GLGC ID NO. 21154
  Mean Tox: 116.8600
Primary rat hepatocytes; GLGC ID NO. 21747
  Mean Tox: 330.9267
Primary rat hepatocytes; GLGC ID NO. 21794
  Mean Tox: 5.9200
Primary rat hepatocytes; GLGC ID NO. 22102
  Mean Tox: 633.5467
Primary rat hepatocytes; GLGC ID NO. 22310
  Mean Tox: 316.3067
Primary rat hepatocytes; GLGC ID NO. 22576
  Mean Tox: 484.4533
Primary rat hepatocytes; GLGC ID NO. 22915
  Mean Tox: 409.8567
Primary rat hepatocytes; GLGC ID NO. 22994
  Mean Tox: 83.8300
Primary rat hepatocytes; GLGC ID NO. 23166
  Mean Tox: 758.8567
Primary rat hepatocytes; GLGC ID NO. 23250
  Mean Tox: 317.7900
Primary rat hepatocytes; GLGC ID NO. 23521
  Mean Tox: 60.4533
Primary rat hepatocytes; GLGC ID NO. 23630
  Mean Tox: 789.8200
Primary rat hepatocytes; GLGC ID NO. 23738
  Mean Tox: 290.9200
Primary rat hepatocytes; GLGC ID NO. 23860
  Mean Tox: 310.3067
Primary rat hepatocytes; GLGC ID NO. 24501
  Mean Tox: 2075.2267
Primary rat hepatocytes; GLGC ID NO. 24554
  Mean Tox: 25.3833
Primary rat hepatocytes; GLGC ID NO. 24814
  Mean Tox: 389.9067
Primary rat hepatocytes; GLGC ID NO. 25594
  Mean Tox: 700.5833
Primary rat hepatocytes; GLGC ID NO. 26184
  Mean Tox: 126.0933
